Values quoted from earlier work in patent US20220016128A1, “METHODS, SYSTEM, AND KIT FOR MONITORING, DIAGNOSING, AND TREATING IMPULSIVE AGGRESSION” (Supernus Pharmaceuticals, Inc., priority 2016, published 2022).

Legend:
[1] = oral dose
[2] = acidic to slightly acidic media versus neutral to slightly alkaline pH (physiologic pH range of the gastro-intestinal tract)

plasma elimination half-life [1]: about 2 hours
Compound: CCc1c(C)[nH]c2c1C(=O)C(CN1CCOCC1)CC2 (centres unmarked) [molindone, 3-Ethyl-6,7-dihydro-2-methyl-5-(morpholinomethyl)indol-4(5H)-one]
solubility [2]: greater solubility in acidic to slightly acidic media than in neutral to slightly alkaline pH values
